We go through 14 molecules from US20060183902A1, “Dihydroindolyl methanones as alpha 1a/1d adrenoreceptor modulators for the treatment of benign prostatic hypertrophy and lower urinary tract symptoms” (priority 2005, published 2006).

In assay [1] the target is T1, α1b-AR (Homo sapiens, UniProt P35368).
T1 construct: expressed in transfected cells; host or cells: COS-7
T1 sequence (P35368 1-520): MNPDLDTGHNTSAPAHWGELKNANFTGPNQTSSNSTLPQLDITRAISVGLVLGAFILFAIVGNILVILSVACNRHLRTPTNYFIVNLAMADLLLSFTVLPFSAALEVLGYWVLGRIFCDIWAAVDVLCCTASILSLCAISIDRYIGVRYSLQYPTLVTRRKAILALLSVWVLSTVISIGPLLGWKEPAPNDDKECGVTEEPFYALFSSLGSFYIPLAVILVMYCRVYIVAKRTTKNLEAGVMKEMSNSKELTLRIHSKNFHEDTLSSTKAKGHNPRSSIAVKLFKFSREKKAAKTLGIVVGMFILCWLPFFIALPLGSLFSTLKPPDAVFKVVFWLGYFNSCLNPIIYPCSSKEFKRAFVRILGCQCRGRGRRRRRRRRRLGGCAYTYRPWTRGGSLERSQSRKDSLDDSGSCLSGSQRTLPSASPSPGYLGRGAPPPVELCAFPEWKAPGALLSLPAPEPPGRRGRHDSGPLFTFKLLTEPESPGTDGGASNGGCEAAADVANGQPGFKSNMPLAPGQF
The experiment in a line: α1-Adrenergic receptor radio-ligand (125I-HEAT) binding assay, α1b subtype. The note with it: COS-7 cell membranes transfected with α1b-AR, 125I-HEAT 50 pM. On the procedure:
(§1) Membranes were prepared from COS-7 cells (African Green monkey kidney SV40-transformed cells) that had been transfected with one of the three α1-AR subtypes by the following method:
(§2) COS cells from ten 100 mm tissue culture plates were scraped into a 5 mL volume of TE (a mixture of 50 mM tris(hydroxymethyl)aminomethane hydrochloride (Tris-HCl) and 5 mM ethylenediaminetetraacetic acid (EDTA) at pH 7.4). The cell suspension was disrupted with a Brinkman Polytron (at a setting of 8) for 10 sec. The disrupted cells were centrifuged at 1000×g for 10 min at 4° C. Supernatants were centrifuged at 34,500×g for 20 min at 4° C. The membrane pellets were suspended in a 2 mL volume of TNE (a mixture of 50 mM Tris-HCl, 5 mM EDTA and 150 mM NaCl at pH7.4). An aliquot of the membrane suspension was stored at −70° C. until use. The protein concentration was determined using a BioRad “DC” protein assay kit following membrane solubilization with Triton X-100.
(§3) Triplicate determinations of radio-ligand binding in the presence of increasing concentrations of testing compound were made. The reagents were added to 96-well polypropylene plate wells. Each assay well contained 140 μL TNE, 25 μL ^125I-2-(β-4-hydroxyplenyl)ethylaminomethyltetralone (^125I-HEAT) (specific activity 2200 Ci/mmol, Dupont-New England Nuclear, 50 pM final), 10 μL testing compound dissolved in dimethyl sulfoxide (DMSO) (1 pM to 10 μM in half-log increments, final), and 25 μL appropriate α1-AR membrane subtype suspension in TNE (0.5 ng/μL for the α1a and α1b subtypes and 13 ng/μL for the α1d subtype). The plate was incubated at rt for 1 hr. The contents of the wells were filtered through a glass filter (type C) (GF/C) membrane Unifilter plate (Packard Instruments) using the Packard Filtermate cell harvester. The filter plates were dried in a vacuum oven for 30 min at 40° C. 25 μL Microscint 20 liquid scintillation fluid (Packard Instuments) was added to each well. The radioactive content was analyzed in the TopCount microplate scintillation counter (Packard Instruments).
(§4) The Ki values (in nM) shown in Table 1 were determined using GraphPad Prism software.

Assay [2] has as its target T2, α1a-AR (Homo sapiens, UniProt P35348).
T2 construct: expressed in transfected cells; host or cells: COS-7
T2 sequence (P35348 1-466): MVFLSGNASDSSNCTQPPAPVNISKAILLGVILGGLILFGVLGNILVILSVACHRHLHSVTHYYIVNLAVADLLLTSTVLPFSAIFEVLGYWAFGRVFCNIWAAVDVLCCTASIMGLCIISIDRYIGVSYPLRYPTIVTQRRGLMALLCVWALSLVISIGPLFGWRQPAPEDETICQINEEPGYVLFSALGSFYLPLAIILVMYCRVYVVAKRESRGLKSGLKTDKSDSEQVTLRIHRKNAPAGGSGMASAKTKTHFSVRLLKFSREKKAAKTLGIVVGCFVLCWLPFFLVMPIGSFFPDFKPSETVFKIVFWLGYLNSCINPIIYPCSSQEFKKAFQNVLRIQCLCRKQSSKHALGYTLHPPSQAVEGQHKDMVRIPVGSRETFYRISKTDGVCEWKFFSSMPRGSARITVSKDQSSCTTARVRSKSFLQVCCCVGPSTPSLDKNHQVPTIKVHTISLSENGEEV
Nature of the assay: α1-Adrenergic receptor radio-ligand (125I-HEAT) binding assay, α1a subtype. As to conditions: COS-7 cell membranes transfected with α1a-AR, 125I-HEAT 50 pM. On the procedure: as §1, §2, §3, §4

The target in assay [3] is T3, α1d-AR (Homo sapiens, UniProt P25100).
T3 construct: expressed in transfected cells; host or cells: COS-7
T3 sequence (P25100 1-572): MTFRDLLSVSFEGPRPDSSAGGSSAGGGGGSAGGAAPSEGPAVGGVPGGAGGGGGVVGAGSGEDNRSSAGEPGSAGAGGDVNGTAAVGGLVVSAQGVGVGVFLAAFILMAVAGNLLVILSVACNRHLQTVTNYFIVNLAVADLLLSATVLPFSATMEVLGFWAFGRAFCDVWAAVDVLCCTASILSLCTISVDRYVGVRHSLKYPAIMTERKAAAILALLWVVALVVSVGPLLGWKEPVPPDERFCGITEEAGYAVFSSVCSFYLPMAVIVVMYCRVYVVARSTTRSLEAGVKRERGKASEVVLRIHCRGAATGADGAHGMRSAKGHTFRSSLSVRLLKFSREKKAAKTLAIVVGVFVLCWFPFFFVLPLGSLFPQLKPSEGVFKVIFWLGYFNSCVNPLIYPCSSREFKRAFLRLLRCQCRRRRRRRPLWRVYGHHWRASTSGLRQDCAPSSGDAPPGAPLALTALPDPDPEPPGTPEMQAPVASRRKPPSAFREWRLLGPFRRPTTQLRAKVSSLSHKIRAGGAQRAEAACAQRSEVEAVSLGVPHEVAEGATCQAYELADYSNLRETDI
The experiment in a line: α1-Adrenergic receptor radio-ligand (125I-HEAT) binding assay, α1d subtype. As to conditions: COS-7 cell membranes transfected with α1d-AR, 125I-HEAT 50 pM. On the procedure:
as §1, §2, §3, §4

Setting [4] is: read-out: Receptor Binding, Ki α1b-AR.
Setting [5] is: read-out: Receptor Binding, Ki α1a-AR.
Setting [6] is: read-out: Receptor Binding, Ki α1d-AR.

Values joined by “and” are separate entries in the source; they are usually repeats but may differ in a detail not shown here. Equal values may be shown once. Read-outs that look alike come from different tables or passages of the source.

A word on the Ki: it is the equilibrium dissociation constant of an inhibitor or competing ligand from its target.

Consider `CC(C)Oc1ccccc1N1CCN(Cc2cccc(C(=O)N3CCc4ccc(N(C(=O)Nc5c(F)cccc5F)C(=O)Nc5c(F)cccc5F)cc43)c2)CC1` [Cpd 43, 3-(2,6-difluoro-phenyl)-1-(1-{3-[4-(2-isopropoxy-phenyl)-piperazin-1-ylmethyl]-benzoyl}-2,3-dihydro-1H-indol-6-yl)-1-(2,6-difluorophenylaminocarbonyl)-urea], for which the Ki in assay [1] (setting [4]) is 204 nM and 185 nM; in assay [2] (setting [5]), 7.8 nM and 3.4 nM; in assay [3] (setting [6]), 2.8 nM and 3.2 nM.

Take `CC(C)Oc1ccccc1N1CCN(Cc2cccc(C(=O)N3CCc4cc(Br)ccc43)c2)CC1` [Cpd 66, (5-bromo-2,3-dihydro-indol-1-yl)-{3-[4-(2-isopropoxy-phenyl)-piperazin-1-ylmethyl]-phenyl}-methanone]: the Ki in assay [1] (setting [4]) was 82.8 nM; in assay [2] (setting [5]) it was 1.3 nM; in assay [3] (setting [6]), 0.3 nM.

In the case of `CC(C)COc1ccccc1N1CCN(Cc2cccc(C(=O)N3CCc4ccccc43)c2)CC1` [Cpd 65, (2,3-dihydro-indol-1-yl)-{3-[4-(2-isobutoxy-phenyl)-piperazin-1-ylmethyl]-phenyl}-methanone], the Ki amounted to 909 nM in assay [1] (setting [4]), 65 nM in assay [2] (setting [5]) and 42 nM in assay [3] (setting [6]).

For `CC(C)Oc1ccccc1CN1CCN(Cc2ccc(C(=O)N3CCc4ccccc43)cc2)CC1` [Cpd 52, (2,3-dihydro-indol-1-yl)-{4-[4-(2-isopropoxy-benzyl)-piperazin-1-ylmethyl]-phenyl}-methanone], the values for the Ki in assay [1] (setting [4]), in assay [2] (setting [5]) and in assay [3] (setting [6]) were 1730 nM, 122 nM and 159 nM, respectively.

Consider `CC(C)Oc1ccccc1N1CCN(Cc2cccc(C(=O)N3CCc4ccc(NCc5ccc6c(c5)OCO6)cc43)c2)CC1` [Cpd 41, {6-[(benzo[1,3]dioxol-5-ylmethyl)-amino]-2,3-dihydro-indol-1-yl}-{3-[4-(2-isopropoxy-phenyl)-piperazin-1-ylmethyl]-phenyl}-methanone], for which the figures for the Ki in assay [1] (setting [4]), in assay [2] (setting [5]) and in assay [3] (setting [6]) were 208 nM, 31 nM and 1.5 nM, respectively.

For the molecule `CC(C)Oc1ccccc1N1CCN(Cc2cccc(C(=O)N3CCc4ccc(NC(=O)Nc5ccccc5)cc43)c2)CC1` [Cpd 22, 1-(1-{3-[4-(2-isopropoxy-phenyl)-piperazin-1-ylmethyl]-benzoyl}-2,3-dihydro-1H-indol-6-yl)-3-phenyl-urea], the Ki in assay [1] (setting [4]) amounted to 251 nM; in assay [2] (setting [5]), 39 nM; in assay [3] (setting [6]), 5 nM.

For the molecule `COc1ccccc1C1CCN(Cc2ccc(C(=O)N3CCc4ccc(N)cc43)cc2)CC1` [Cpd 34, (6-amino-2,3-dihydro-indol-1-yl)-{4-[4-(2-methoxy-phenyl)-piperidin-1-ylmethyl]-phenyl}-methanone], the figures for the Ki in assay [1] (setting [4]), in assay [2] (setting [5]) and in assay [3] (setting [6]) were 473 nM, 34.9 nM and 49.6 nM, respectively.

Regarding `N#Cc1ccccc1N1CCN(Cc2cccc(C(=O)N3CCc4ccccc43)c2)CC1` [Cpd 31, (2,3-dihydro-indol-1-yl)-{3-[4-(2-cyano-phenyl)-piperazin-1-ylmethyl]-phenyl}-methanone], the Ki in assay [1] (setting [4]) was 331 nM; in assay [2] (setting [5]), 171 nM; in assay [3] (setting [6]), 11.6 nM and 88 nM.

`CC(C)Oc1ccccc1C1CCN(Cc2cccc(C(=O)N3CCc4ccc(NS(=O)(=O)c5c(F)cccc5F)cc43)c2)CC1` [Cpd 58, 2,6-difluoro-N-(1-{3-[4-(2-isopropoxy-phenyl)-piperidin 1-ylmethyl]-benzoyl}-2,3-dihydro-1H-indol-6-yl)-benzenesulfonamide]: the Ki in assay [1] (setting [4]) was 234 nM and 255 nM; in assay [2] (setting [5]), 0.8 nM and 0.5 nM; in assay [3] (setting [6]), 1.9 nM and 1 nM.

As for `Cc1ccc(S(=O)(=O)Nc2ccc3c(c2)N(C(=O)c2cccc(CN4CCN(c5ccccc5OC(C)C)CC4)c2)CC3)cc1` [Cpd 46, N-(1-{3-[4-(2-isopropoxy-phenyl)-piperazin-1-ylmethyl]-benzoyl}-2,3-dihydro-1H-indol-6-yl)-4-methyl-benzenesulfonamide], the Ki was determined as 242 nM in assay [1] (setting [4]), 5.9 nM in assay [2] (setting [5]) and 5.6 nM in assay [3] (setting [6]).

Take `CC(=O)Nc1ccc(S(=O)(=O)Nc2ccc3c(c2)N(C(=O)c2cccc(CN4CCN(c5ccccc5OC(C)C)CC4)c2)CC3)cc1` [Cpd 15, N-[4-(1-{3-[4-(2-isopropoxy-phenyl)-piperazin-1-ylmethyl]-benzoyl}-2,3-dihydro-1H-indol-6-ylsulfamoyl)-phenyl]-acetamide]: the Ki amounted to 91 nM in assay [1] (setting [4]), 1 nM in assay [2] (setting [5]) and 700 nM in assay [3] (setting [6]).

On to `Cc1ccc(OC(=O)Nc2ccc3c(c2)N(C(=O)c2cccc(CN4CCN(c5ccccc5OC(C)C)CC4)c2)CC3)cc1` [Cpd 12, (1-{3-[4-(2-isopropoxy-phenyl)-piperazin-1-ylmethyl]-benzoyl}-2,3-dihydro-1H-indol-6-yl)-carbamic acid p-tolyl ester], for which the inhibition constant Ki in assay [1] (Receptor Binding, Ki α1b-AR) turned out to be 495 nM; in assay [2] (Receptor Binding, Ki α1a-AR) it was 3.3 nM; in assay [3] (Receptor Binding, Ki α1d-AR), 5.7 nM.

Regarding `CCOC(OCC)c1ccc(CNc2ccc3c(c2)N(C(=O)c2ccc(CN4CCC(c5ccccc5OC)CC4)cc2)CC3)cc1` [Cpd 37, [6-(4-diethoxymethyl-benzylamino)-2,3-dihydro-indol-1-yl]-{4-[4-(2-methoxy-phenyl)-piperidin-1-ylmethyl]-phenyl}-methanone], the inhibitory constant (Ki) in assay [1] (setting [4]) stood at 909 nM; in assay [2] (setting [5]), 75.6 nM; in assay [3] (setting [6]), 98 nM.

As to `COc1cccc(OC)c1C(=O)Nc1ccc2c(c1)N(C(=O)c1cccc(CN3CCN(c4ccccc4OC(C)C)CC3)c1)CC2` [Cpd 28, N-(1-{3-[4-(2-isopropoxy-phenyl)-piperazin-1-ylmethyl]-benzoyl}-2,3-dihydro-1H-indol-6-yl)-2,6-dimethoxy-benzamide], the Ki turned out to be 796 nM in assay [1] (setting [4]), 17 nM in assay [2] (setting [5]) and 6.8 nM in assay [3] (setting [6]).
